Assay results as given in patent publication US20180282279A1, “Pantothenamide Analogues” (Radboud Universitair Medisch Centrum, priority 2014, published 2018).
Converted amounts (≈) assume the structure as drawn. Where two headings read alike, the source gives them in different places.

Columns and labels:
[1] = tested on: Staphylococcus epidermidis; assay: Bacterial growth assay and MIC determination, S. epidermidis; type: cell-based; details: Staphylococcus epidermidis
Description: (§1) Strains of Escherichia coli, Staphylococcus aureus and Staphylococcus epidermidis, were grown overnight in 1% Bacto tryptone medium (BD, Sparks, Md.). Streptococcus pyogenes was grown overnight in Bacto Todd Hewitt Broth medium (BD, Sparks, Md.). Cultures were then diluted 1:1,000 in fresh assay medium supplemented with or without 20% fetal bovine serum (FBS; HyClone, Celbio, Logan, Utah) and added to 96-well sterile enzyme-linked immunosorbent assay (ELISA) plates (100 μl per well). The compounds to be tested were diluted in the medium without serum and added to the bacteria (100 μl per well). Plates were incubated at 37° C., and bacterial growth was monitored over time by reading the optical density at 490 nm using a microplate reader (model 450; Bio-Rad Laboratories Inc., Hercules, Calif.). Streptococcus pneumoniae strains were grown to mid-log phase (OD620 of 0.3) and stored in 15% glycerol at […] till further use. Minimal inhibitory concentration (MIC) of antibiotics was determined according to standard procedures. Bacteria were diluted 10-fold in Mueller-Hinton medium (BD, Sparks, Md.) and added to 96-well sterile ELISA plates (150 μl per well). The compounds to be tested were diluted in the medium without serum and added to the bacteria (150 μl per well). Plates were incubated overnight at 37° C. in 5% CO2. The MIC was defined as the lowest concentration of compound at which no growth was visible with the naked eye.

Streptococcus pneumoniae = assay: MIC determination, S. pneumoniae; type: cell-based; details: Streptococcus pneumoniae; S. pneumoniae, serum −; read-out: MIC
Description: Streptococcus pneumoniae strains were grown to mid-log phase (OD620 of 0.3) and stored in 15% glycerol at […] till further use. Minimal inhibitory concentration (MIC) of antibiotics was determined according to standard procedures. Bacteria were diluted 10-fold in Mueller-Hinton medium (BD, Sparks, Md.) and added to 96-well sterile ELISA plates (150 μl per well). The compounds to be tested were diluted in the medium without serum and added to the bacteria (150 μl per well). Plates were incubated overnight at 37° C. in 5% CO2. The MIC was defined as the lowest concentration of compound at which no growth was visible with the naked eye.

[2] = tested on: transgenic P. falciparum NF54 strain that expresses a luciferase reporter gene, in Anopheles stephensi mosquitoes; assay: Standard Membrane Feeding Assay (SMFA), luciferase reporter; type: in vivo, Plasmodium falciparum; details: for IC50: indirect mode of the SMFA
Description: To assess the effect of a reduction in gametocyte viability and or capacity to form a gamete on actual transmission of the parasites, Standard Membrane Feeding Assays (SMFA) were performed using a transgenic P. falciparum NF54 strain that expresses a luciferase reporter gene from a hsp70 promoter. Parasite cultures showing ˜3% mature gametocytes were checked for the ability to show exflagellation after addition of xanthurenic acid to a final concentration of 40 μM. Infectivity of cultures showing positive exflagellation was tested in a ‘prefeed’ experiment as described previously (Antimicrob Agents Chemother, 2012. 56(7): p. 3544-8). Cultures showing development of retorts and ookinetes in the mosquito midgut were selected for testing of compounds. In the indirect mode of the assay, gametocytes were pre-incubated with compound prior to mosquito feeding. To this end, 40 μl compound diluted in parasite culture medium was added to 360 μl of parasite culture and incubated for 24 hrs at 37° C. in Eppendorf tubes (0.1% DMSO final concentration). Hereafter, 300 μl was added to 180 μl of packed red blood cells and centrifuged for 20 seconds at 10,000 g. After carefully aspirating the supernatant, 200 μl of human serum type A was added to the pellet. Finally, 300 μl was immediately injected into an individual membrane-covered minifeeder, where 50 Anopheles stephensi mosquitoes of 1-to-5-days old were allowed to feed for 10 minutes and non-fed mosquitoes were removed from the cage. Eight days after feeding, 20 mosquitoes were sacrificed and parasite luciferase activity was measured as described previously (Stone, J Infect Dis. 2014 in press). For the direct SMFA, 300 μl parasite culture was added to 180 μl red blood cells, centrifuged for 20 seconds at 10,000 g and the supernatant was carefully aspirated. Meanwhile, 10 μl of compound diluted in incomplete medium was added to 490 μl human serum type A (0.1% DMSO final). 200 μl of this compound containing human serum was added to the pellet, which was subsequently used for the SMFA as described above. For dose response analyses, compounds were diluted in DMSO with subsequent dilution in culture medium to a final DMSO concentration of 0.1%. Controls included vehicle (0.1% DMSO) and DHA at its approximate IC90 (10 μM). Data were analyzed by logistic regression using the formula: Y=Bottom+(Top−Bottom)/(1+10̂((Log IC50−X)*HillSlope)) and a least squares method to find the best fit.

Streptococcus pyogenes = assay: Bacterial growth assay and MIC determination, S. pyogenes; type: cell-based; details: Streptococcus pyogenes; S. pyogenes, serum −; read-out: MIC
Description: as §1

[3] = tested on: Plasmodium berghei strain 676c11 (PbGFP-Luc); assay: In vivo rodent malaria model; details: female Wistar rats, 100 mg/kg orally three times a day, day 5-8
Source text: Female mice (C57 Black 6, 9-10 weeks of age at the start of the experiment) and female rats (Wistar, 150-200 grams at the beginning of the experiment) were housed under standard conditions and experiments were approved by the institutional ethical committee on animal care and experimentation of Radboud University Medical Centre (Nijmegen).
To test our compounds in an in vivo malaria model we used a well described rodent malaria model (Zuckerman and Yoeli, J Infect Dis. 94, 225-36). First, donor mice were infected by 0.2 ml cryopreserved infected blood stocks containing the transgenic Plasmodium berghei strain 676c11 (PbGFP-Luc). After four days the mice were sacrificed and their blood was collected. The parasitemia in the blood from the mice was calculated as percentage of infected red blood cells (RBC) by Giemsa-stained blood smears. Infected blood was diluted to 5×10^7 parasites per ml and 0.2 ml was i.p. injected in rats (inoculation of 10′ parasites per rat). Treatment with chloroquine (6 mg/kg), CXP18.6-017 (100 mg/kg) and CXP18.6-052 (100 mg/kg) started 5 days post inoculation and where given orally three times a day until day eight. From day 5 blood samples were collected and parasitemia was determined by analysis of Giemsa-stained blood smears. The infection and treatment regimes were well tolerated by the animals.

[4] = tested on: S. aureus (SA), S. epidermidis (SE), S. pyogenes (SP), S. pneumoniae (SPn); assay: MIC for most sensitive bacterial species (panel); type: cell-based; details: Table 1, no species named, read-out: MIC (μg/ml) for most sensitive bacterial species
Description: as §1

[5] = Table 1, most sensitive species S. epidermidis (SE), read-out: MIC (μg/ml) for most sensitive bacterial species
[6] = 24 hrs pre-incubation, read-out: IC50 on the average luciferase intensity
[7] = read-out: IC50 on parasite prevalence (percentage of infected mosquitoes)

`CC(C)(CO)[C@@H](O)C(=O)NCCNC(=O)CCc1ccccc1` [CXP18.6-006] was tested, and the MIC [1, 5] was 16 µg/mL (≈ 49.6 µM).
For `CC(C)(CO)[C@@H](O)C(=O)NCCNC(=O)CCc1ccccc1F` [CXP18.6-017], the MIC (Streptococcus pneumoniae) was greater than 32 µg/mL, the “inhibitory effect in the indirect mode compared with the direct mode” value ([2]; gametocytes pre-exposed prior to mosquito feeding) was “stronger” and the “luciferase intensity in the direct mode of the assay” value ([2]; in comparison with the DMSO control) was “reduced luciferase intensity”. The IC50 [2, 6] was 20 nM, the IC50 [2, 7] was 178 nM and the MIC (Streptococcus pyogenes) was 8 µg/mL (≈ 23.5 µM). The parasitemia [3] was “reduced parasitemia with similar kinetics as found for chloroquine”, the MIC ([1]; S. epidermidis, serum −, read-out: MIC) was 32 µg/mL (≈ 94 µM) and the MIC [1, 5] was 2 µg/mL (≈ 5.88 µM).
For `Cc1ccc(CCC(=O)NCCNC(=O)[C@H](O)C(C)(C)CO)cc1` [CXP18.6-026], the MIC ([4]; tested for SA, SE, SP and SPn) was greater than 32 µg/mL, the IC50 [2, 6] was 107 nM and the IC50 [2, 7] was 370 nM.
In the case of `CC(C)(CO)[C@@H](O)C(=O)NCCNC(=O)CCc1cccnc1` [CXP18.6-052], the MIC ([4]; Streptococcus pneumoniae, marked *: not tested for S. pneumoniae) is reported as greater than 32 µg/mL and the parasitemia [3] is reported as “significant, albeit partial, reduction of parasitemia”.
